Reference: patent US9695155B2, “Herbicidal substituted pyrimidinyloxy benzene compounds” (E. I. DU PONT DE NEMOURS AND COMPANY, priority 2013, dated 2017)

Columns and labels:
morningglory = assay: Test E preemergence; type: in vivo, Ipomoea coccinea; settings: for Morningglory plant response rating: scale 0 to 100 (0 no effect, 100 complete control); for Plant response rating, Morningglory: scale 0 to 100, 0 no effect, 100 complete control
Procedure, shortened: (§1)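 Test chemicals formulated in a non-phytotoxic solvent mixture containing a surfactant were applied preemergence to seeds in silt loam soil or postemergence to plants at the 1- to 4-leaf stage in potting mix. After 14 to 21 days in a greenhouse, injury was visually rated against controls on a 0-100 scale (0 = no effect, 100 = complete control).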

wild poinsettia [1] = assay: Test E preemergence; type: in vivo, Euphorbia heterophylla; settings: for Poinsettia, Wild plant response rating: scale 0 to 100 (0 no effect, 100 complete control); for Plant response rating, Poinsettia, Wild: scale 0 to 100, 0 no effect, 100 complete control
Procedure, shortened: as §1

Brazilian crabgrass = assay: Test E preemergence; type: in vivo, Digitaria horizontalis; settings: for Crabgrass, Brazil plant response rating: scale 0 to 100 (0 no effect, 100 complete control); for Plant response rating, Crabgrass, Brazil: scale 0 to 100, 0 no effect, 100 complete control
Procedure, shortened: as §1

green foxtail = assay: Test E preemergence; type: in vivo, Setaria viridis; settings: for Foxtail, Green plant response rating: scale 0 to 100 (0 no effect, 100 complete control); for Plant response rating, Foxtail, Green: scale 0 to 100, 0 no effect, 100 complete control
Procedure, shortened: as §1

Italian ryegrass = assay: Test E postemergence; type: in vivo, Lolium multiflorum; settings: Lolium multiflorum, post-emergence, read-out: Plant response rating, Ryegrass, Italian
Procedure, shortened: as §1

wild poinsettia [2] = assay: Test E postemergence; type: in vivo, Euphorbia heterophylla; settings: Euphorbia heterophylla, post-emergence, read-out: Plant response rating, Poinsettia, Wild
Procedure, shortened: as §1

johnsongrass = assay: Test E preemergence; type: in vivo, Sorghum halepense; settings: for Johnsongrass plant response rating: scale 0 to 100 (0 no effect, 100 complete control); for Plant response rating, Johnsongrass: scale 0 to 100, 0 no effect, 100 complete control
Procedure, shortened: as §1

fall panicum = assay: Test E preemergence; type: in vivo, Panicum dichotomiflorum; settings: for Panicum, Fall plant response rating: scale 0 to 100 (0 no effect, 100 complete control); for Plant response rating, Panicum, Fall: scale 0 to 100, 0 no effect, 100 complete control
Procedure, shortened: as §1

velvetleaf = assay: Test E preemergence; type: in vivo, Abutilon theophrasti; settings: for Velvetleaf plant response rating: scale 0 to 100 (0 no effect, 100 complete control); for Plant response rating, Velvetleaf: scale 0 to 100, 0 no effect, 100 complete control
Procedure, shortened: as §1

nightshade = assay: Test E preemergence; type: in vivo, Solanum ptycanthum; settings: for Nightshade plant response rating: scale 0 to 100 (0 no effect, 100 complete control); for Plant response rating, Nightshade: scale 0 to 100, 0 no effect, 100 complete control
Procedure, shortened: as §1

palmer pigweed = assay: Test E postemergence; type: in vivo, Amaranthus palmeri; settings: post-emergence, read-out: Plant response rating, Pigweed, Palmer
Procedure, shortened: as §1

giant foxtail = assay: Test E preemergence; type: in vivo, Setaria faberii; settings: for Foxtail, Giant plant response rating: scale 0 to 100 (0 no effect, 100 complete control); for Plant response rating, Foxtail, Giant: scale 0 to 100, 0 no effect, 100 complete control
Procedure, shortened: as §1

large (Lg) crabgrass = assay: Test E preemergence; type: in vivo, Digitaria sanguinalis; settings: for Crabgrass, Large plant response rating: scale 0 to 100 (0 no effect, 100 complete control); for Plant response rating, Crabgrass, Large: scale 0 to 100, 0 no effect, 100 complete control
Procedure, shortened: as §1

barnyardgrass = assay: Test E preemergence; type: in vivo, Echinochloa crus-galli; settings: for Barnyardgrass plant response rating: scale 0 to 100 (0 no effect, 100 complete control); for Plant response rating, Barnyardgrass: scale 0 to 100, 0 no effect, 100 complete control
Procedure, shortened: as §1

field bindweed = assay: Test E postemergence; type: in vivo, Convolvulus arvensis; settings: Convolvulus arvensis, post-emergence, read-out: Plant response rating, Field Bindweed
Procedure, shortened: as §1

sandbur = assay: Test E postemergence; type: in vivo, Cenchrus echinatus; settings: Cenchrus echinatus, post-emergence, read-out: Plant response rating, Sandbur
Procedure, shortened: as §1

[3] = Postemergence, 31 g ai/ha, scale 0 to 100
[4] = Postemergence, 62 g ai/ha, scale 0 to 100
[5] = Postemergence, 125 g ai/ha, scale 0 to 100
[6] = postemergence, 16 g ai/ha, scale 0 to 100, 0 no effect, 100 complete control

N#Cc1cccc(Oc2ncc(Cl)cn2)c1-n1cc(Br)cn1 [Compound 52, 2-(4-bromo-1H-pyrazol-1-yl)-3-[(5-chloro-2-pyrimidinyl)oxy]benzonitrile]
Morningglory plant response rating (morningglory; 16 g ai/ha): 0
Morningglory plant response rating (morningglory; 31 g ai/ha): 5
Morningglory plant response rating (morningglory; 62 g ai/ha): 35
Plant response rating, Morningglory (morningglory; 125 g ai/ha): 95
Plant response rating, Morningglory (morningglory; 250 g ai/ha): 98
Poinsettia, Wild plant response rating (wild poinsettia [1]; 16 g ai/ha): 0
Poinsettia, Wild plant response rating (wild poinsettia [1]; 31 g ai/ha): 0
Poinsettia, Wild plant response rating (wild poinsettia [1]; 62 g ai/ha): 25
Plant response rating, Poinsettia, Wild (wild poinsettia [1]; 125 g ai/ha): 50
Plant response rating, Poinsettia, Wild (wild poinsettia [1]; 250 g ai/ha): 100
Crabgrass, Brazil plant response rating (Brazilian crabgrass; 16 g ai/ha): 0
Crabgrass, Brazil plant response rating (Brazilian crabgrass; 31 g ai/ha): 90
Crabgrass, Brazil plant response rating (Brazilian crabgrass; 62 g ai/ha): 100
Plant response rating, Crabgrass, Brazil (Brazilian crabgrass; 125 g ai/ha): 100
Plant response rating, Crabgrass, Brazil (Brazilian crabgrass; 250 g ai/ha): 100
Foxtail, Green plant response rating (green foxtail; 16 g ai/ha): 0
Foxtail, Green plant response rating (green foxtail; 31 g ai/ha): 20
Foxtail, Green plant response rating (green foxtail; 62 g ai/ha): 75
Plant response rating, Foxtail, Green (green foxtail; 125 g ai/ha): 80
Plant response rating, Foxtail, Green (green foxtail; 250 g ai/ha): 100
pest or weed control at 31 g/ha (Italian ryegrass; [3]): 0%
pest or weed control at 62 g/ha (Italian ryegrass; [4]): 0%
pest or weed control at 125 g/ha (Italian ryegrass; [5]): 10%
pest or weed control at 16 g/ha (Italian ryegrass; [6]): 0%
pest or weed control at 31 g/ha (wild poinsettia [2]; [3]): 40%
pest or weed control at 62 g/ha (wild poinsettia [2]; [4]): 50%
pest or weed control at 125 g/ha (wild poinsettia [2]; [5]): 70%
pest or weed control at 16 g/ha (wild poinsettia [2]; [6]): 45%
Johnsongrass plant response rating (johnsongrass; 16 g ai/ha): 0
Johnsongrass plant response rating (johnsongrass; 31 g ai/ha): 0
Johnsongrass plant response rating (johnsongrass; 62 g ai/ha): 30
Plant response rating, Johnsongrass (johnsongrass; 125 g ai/ha): 70
Plant response rating, Johnsongrass (johnsongrass; 250 g ai/ha): 98
Panicum, Fall plant response rating (fall panicum; 16 g ai/ha): 0
Panicum, Fall plant response rating (fall panicum; 31 g ai/ha): 0
Panicum, Fall plant response rating (fall panicum; 62 g ai/ha): 100
Plant response rating, Panicum, Fall (fall panicum; 125 g ai/ha): 100
Plant response rating, Panicum, Fall (fall panicum; 250 g ai/ha): 100
Velvetleaf plant response rating (velvetleaf; 16 g ai/ha): 0
Velvetleaf plant response rating (velvetleaf; 31 g ai/ha): 0
Velvetleaf plant response rating (velvetleaf; 62 g ai/ha): 75
Plant response rating, Velvetleaf (velvetleaf; 125 g ai/ha): 85
Plant response rating, Velvetleaf (velvetleaf; 250 g ai/ha): 90
Nightshade plant response rating (nightshade; 16 g ai/ha): 0
Nightshade plant response rating (nightshade; 31 g ai/ha): 0
Nightshade plant response rating (nightshade; 62 g ai/ha): 75
Plant response rating, Nightshade (nightshade; 125 g ai/ha): 98
Plant response rating, Nightshade (nightshade; 250 g ai/ha): 100
pest or weed control at 31 g/ha (palmer pigweed; [3]): 70%
pest or weed control at 62 g/ha (palmer pigweed; [4]): 95%
pest or weed control at 125 g/ha (palmer pigweed; [5]): 95%
pest or weed control at 16 g/ha (palmer pigweed; [6]): 60%
Foxtail, Giant plant response rating (giant foxtail; 16 g ai/ha): 0
Foxtail, Giant plant response rating (giant foxtail; 31 g ai/ha): 70
Foxtail, Giant plant response rating (giant foxtail; 62 g ai/ha): 70
Plant response rating, Foxtail, Giant (giant foxtail; 125 g ai/ha): 100
Plant response rating, Foxtail, Giant (giant foxtail; 250 g ai/ha): 100
Crabgrass, Large plant response rating (large (Lg) crabgrass; 16 g ai/ha): 0
Crabgrass, Large plant response rating (large (Lg) crabgrass; 31 g ai/ha): 35
Crabgrass, Large plant response rating (large (Lg) crabgrass; 62 g ai/ha): 98
Plant response rating, Crabgrass, Large (large (Lg) crabgrass; 125 g ai/ha): 100
Plant response rating, Crabgrass, Large (large (Lg) crabgrass; 250 g ai/ha): 100
Barnyardgrass plant response rating (barnyardgrass; 16 g ai/ha, preemergence): 0
Barnyardgrass plant response rating (barnyardgrass; 31 g ai/ha, preemergence): 0
Plant response rating, Barnyardgrass (barnyardgrass; Preemergence, 62 g ai/ha): 30
Plant response rating, Barnyardgrass (barnyardgrass; preemergence, 125 g ai/ha): 75
Plant response rating, Barnyardgrass (barnyardgrass; preemergence, 250 g ai/ha): 98
pest or weed control at 31 g/ha (field bindweed; [3]): 50%
pest or weed control at 62 g/ha (field bindweed; [4]): 65%
pest or weed control at 125 g/ha (field bindweed; [5]): 65%
pest or weed control at 16 g/ha (field bindweed; [6]): 50%
pest or weed control at 31 g/ha (sandbur; [3]): 10%
pest or weed control at 62 g/ha (sandbur; [4]): 25%
pest or weed control at 125 g/ha (sandbur; [5]): 20%
pest or weed control at 16 g/ha (sandbur; [6]): 15%
